Key:
ERα = ERα (Homo sapiens (Human), UniProt P03372); assay: Degradation effect of compounds on ERα in MCF-7 and CAMA-1 cells (automated western blot, 24 h); type: cell-based; settings: ERα degradation in MCF-7 cells; for DC50: 24 hours; for Dmax at 0.1 µM: MCF7, @100 nM
Protocol: 2. Degradation Effect of Compounds on ERα in MCF-7 and CAMA-1 Cells
Breast cancer cells MCF-7 and CAMA-1 were purchased from ATCC, the cell media were all EMEM+10% FBS, and the cells were cultured in an incubator at 37° C. under 5% CO2. On the first day, the cells in an exponential phase were collected. With a 10% css-FBS phenol red-free medium, the cell suspension was adjusted to a corresponding concentration, plated at 300000 cells/well and incubated for 3 days. After 3 days, the liquid in the well was aspirated, and a 10% css-FBS phenol red-free medium containing the compound to be tested was added and cultured in an incubator at 37° C. under 5% CO2. After 24 hours, 60 μl of RIPA lysis solution (containing 1× protease inhibitor cocktail) was added to each well, lysed on ice for 15 minutes, and then centrifuged at 4° C. for 10 minutes at 12000 g. The supernatant protein samples were collected, and protein quantification was performed by a BCA method. ERα was detected using fully automatic protein expression quantitative analysis, which involved diluting the protein to be tested to 1.5 mg/mL. 4 μL of the diluted protein samples were added to 1 μL of 5×Master Mix (provided in the kit), and the prepared samples were denatured at 95° C. for 5 min and placed on ice for use. Antibody Diluent II (provided in the kit) was used to dilute the primary antibody, in which the dilution ratios of ERα (CST, 13258S) and β-actin (CST, 3700) antibodies were 1:40 and 1:500, respectively, the secondary antibody was a 1:1 mixture of goat anti-mouse and goat anti-rabbit secondary antibodies, and the chromogenic solution was a 1:1 mixture of Lumino-S and Peroxide. The prepared reagents were successively added to an assay plate according to instructions of the kit and detected on an instrument. Western blot band processing was performed using “Compass for SW”, a fully automatic protein expression quantitative analysis software, in which western blot bands were automatically simulated based on signal values. The proportion of ERα relative to the solvent control at different drug concentrations according to equation (1), wherein Acompound was the relative peak area of ERα in the treated group, and Asolvent was the relative peak area of ERα in the solvent control group.
ERα%=Acompound/Asolvent×100 equation (1)
DC50 calculation: Calculation was performed according to equation (1), and using Graphpad Prism 8.0 software, the compound concentration DC50 values at which the degradation rate of ERα was 50% were calculated using a non-linear four-parameter function (Non linear regression (curve fit)) (Table 1).

MCF-7 cells = assay: Inhibitory effect of compounds on the proliferation of MCF-7 cells (CellTiter-Glo, 7 days); type: cell-based; settings: Homo sapiens, MCF7, 168 h, 7 days incubation
Protocol: 1. Inhibitory Effect of Compounds on the Proliferation of MCF-7 Cells
Breast cancer cells MCF-7 were purchased from ATCC, the cell media were all EMEM+10% FBS, and the cells were cultured in an incubator at 37° C. under 5% CO2. On the first day, cells in the exponential growth phase were collected and cultured in a 10% css-FBS phenol red-free medium without cytokines for 3 days. After the completion of culture, a 10% css-FBS phenol red-free medium was used to adjust the cell suspension to the corresponding concentration and same was plated to 1000 cells/well. P-estradiol and compounds of different concentrations were added. A plate without adding any reagent was taken and used as Day0 with a reading value RLUday0, determined with CellTiter-Glo kit, placed in an incubator and incubated for 7 days. After the incubation was completed, according to operation instructions for a CellTiter-Glo kit (Promega, G7573), 50 μL of CellTiter-Glo solutions, which were pre-melted and equilibrated to room temperature, were added to each well, and the mixtures were uniformly mixed for 2 min using a microplate shaker. The plate was placed at room temperature for 10 min, and then […] signal values were measured using a microplate reader (PHERAstar FSX). Chemiluminescence readouts were processed using origin9.2 software and the DoseResp function was used to calculate the GIsovalue for the inhibitory activity of compounds on the proliferation of cells (Table 1). The results were processed according to equation (1), the inhibition rate of the compound at different concentrations was calculated, and the GI50 value of the compound with a proliferation rate of 50% was calculated using origin9.2 software, wherein RLUcompound was the readout of the treated group, and RLUcontrol was the average value of the solvent control group.
Growth %=(RLUcompound−RLUday0)/(RLUcontrol−RLUday0)×100 equation (1)

ER = settings: clinical samples; cited from earlier work

ERα, sequence (P03372 whole entry): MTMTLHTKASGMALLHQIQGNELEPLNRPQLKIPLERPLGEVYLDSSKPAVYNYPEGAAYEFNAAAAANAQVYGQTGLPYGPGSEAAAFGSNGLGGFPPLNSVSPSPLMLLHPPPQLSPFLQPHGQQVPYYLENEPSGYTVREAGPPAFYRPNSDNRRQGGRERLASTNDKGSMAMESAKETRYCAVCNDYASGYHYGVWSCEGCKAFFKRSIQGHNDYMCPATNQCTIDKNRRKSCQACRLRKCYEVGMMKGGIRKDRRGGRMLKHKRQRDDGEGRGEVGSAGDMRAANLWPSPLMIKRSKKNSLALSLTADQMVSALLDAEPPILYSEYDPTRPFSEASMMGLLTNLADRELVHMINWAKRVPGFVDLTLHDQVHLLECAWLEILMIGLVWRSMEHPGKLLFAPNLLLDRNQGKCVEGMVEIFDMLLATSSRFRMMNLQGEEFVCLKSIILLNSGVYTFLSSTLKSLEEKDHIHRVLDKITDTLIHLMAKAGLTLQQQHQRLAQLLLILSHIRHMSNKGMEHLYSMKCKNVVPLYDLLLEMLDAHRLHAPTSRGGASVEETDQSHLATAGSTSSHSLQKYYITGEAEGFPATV

SMILES | DC50 (ERα) | Dmax at 0.1 µM (ERα) | GI50 (MCF-7 cells) | ER degradation (ER)
CC1Cc2c([nH]c3cc4c(cc23)CC4)C(c2c(F)cc(NC3CN(CCCF)C3)cc2F)N1CC(F)(F)F (single isomer, unassigned) [Compound 22-1, N-(3,5-difluoro-4-(3-methyl-2-(2,2,2-trifluoroethyl)-2,3,4,6,7,9-hexahydro-1H-cyclobuta[f]pyrido[3,4-b]indol-1-yl)phenyl)-1-(3-fluoropropyl)azetidin-3-amine] | 1.13 nM | 69% |  | 
Cc1ccc2c3c([nH]c2c1)[C@@H](c1c(F)cc(N[C@H]2CCN(CCCF)C2)cc1F)N(CC(F)(F)CO)[C@H](C)C3 [Compound 8, 3-((1R,3R)-1-(2,6-difluoro-4-(((S)-1-(3-fluoropropyl)pyrrolidin-3-yl)amino)phenyl)-3,7-dimethyl-1,3,4,9-tetrahydro-2H-pyrido[3,4-b]indol-2-yl)-2,2-difluoropropan-1-ol] | 0.594 nM | 70% |  | 
C[C@@H]1Cc2c([nH]c3cccc(F)c23)[C@@H](c2c(F)cc(N[C@H]3CCN(CCCF)C3)cc2F)N1CC(F)(F)CO [Compound 15, 3-((1R,3R)-1-(2,6-difluoro-4-(((S)-1-(3-fluoropropyl)pyrrolidin-3-yl)amino)phenyl)-5-fluoro-3-methyl-1,3,4,9-tetrahydro-2H-pyrido[3,4-b]indol-2-yl)-2,2-difluoropropan-1-ol] | 0.447 nM | 72% |  | 
C[C@@H]1Cc2c([nH]c3cc(F)ccc23)[C@@H](c2c(F)cc(N[C@H]3CCN(CCCF)C3)cc2F)N1CC(F)(F)CO [Compound 31, 3-((1R,3R)-1-(2,6-difluoro-4-(((S)-1-(3-fluoropropyl)pyrrolidin-3-yl)amino)phenyl)-7-fluoro-3-methyl-1,3,4,9-tetrahydro-2H-pyrido[3,4-b]indol-2-yl)-2,2-difluoropropan-1-ol] | 0.244 nM | 77% |  | 
C[C@@H]1Cc2c([nH]c3cc(F)c(F)cc23)[C@@H](c2c(F)cc(N[C@H]3CCN(CCCF)C3)cc2F)N1CC(F)(F)CO [Compound 35, 3-((1R,3R)-1-(2,6-difluoro-4-(((S)-1-(3-fluoropropyl)pyrrolidin-3-yl)amino)phenyl)-6,7-difluoro-3-methyl-1,3,4,9-tetrahydro-2H-pyrido[3,4-b]indol-2-yl)-2,2-difluoropropan-1-ol] | 0.269 nM | 68% | < 0.026 nM | 
C[C@@H]1Cc2c([nH]c3ccc(F)cc23)[C@@H](c2c(F)cc(N[C@H]3CCN(CCCF)C3)cc2F)N1CC(F)(F)CF [Compound 38, (S)—N-(3,5-difluoro-4-((1R,3R)-6-fluoro-3-methyl-2-(2,2,3-trifluoropropyl)-2,3,4,9-tetrahydro-1H-pyrido[3,4-b]indol-1-yl)phenyl)-1-(3-fluoropropyl)pyrrolidin-3-amine] | 1.7 nM | 72% | < 0.026 nM | 
Cc1ccc2[nH]c3c(c2c1)C[C@@H](C)N(CC(F)(F)CO)[C@@H]3c1c(F)cc(N[C@H]2CCN(CCCF)C2)cc1F [Compound 49, 3-((1R,3R)-1-(2,6-difluoro-4-(((S)-1-(3-fluoropropyl)pyrrolidin-3-yl)amino)phenyl)-3,6-dimethyl-1,3,4,9-tetrahydro-2H-pyrido[3,4-b]indol-2-yl)-2,2-difluoropropan-1-ol] | 0.726 nM | 70% | < 0.026 nM | 
C#Cc1ccc2c3c([nH]c2c1)[C@@H](c1c(F)cc(NC2CN(CCCF)C2)cc1F)N(CC(F)(F)F)[C@H](C)C3 [Compound 51, N-(4-((1R,3R)-7-ethynyl-3-methyl-2-(2,2,2-trifluoroethyl)-2,3,4,9-tetrahydro-1H-pyrido[3,4-b]indol-1-yl)-3,5-difluorophenyl)-1-(3-fluoropropyl)azetidin-3-amine] | 0.712 nM | 68% |  | 
C[C@]12CC[C@@H]3c4ccc(O)cc4C[C@@H](CCCCCCCCC[S+]([O-])CCCC(F)(F)C(F)(F)F)[C@H]3[C@@H]1CC[C@@H]2O (some centres unmarked) [Fulvestrant] |  |  |  | approximately 50%
